This is an account of results in article PMC12672436 (Frontiers in Pharmacology, 2025).

Read-outs that look alike come from different tables or passages of the source.

The target in one assay is T1, human NET (Homo sapiens, UniProt P23975).
T1 construct: expressed in transfected cells
Description: cell-based. Format: cell-based.

In assay [1] the target is T2, human OCT3 (Homo sapiens, UniProt O75751).
T2 construct: expressed in transfected cells
T2 sequence (O75751 1-556): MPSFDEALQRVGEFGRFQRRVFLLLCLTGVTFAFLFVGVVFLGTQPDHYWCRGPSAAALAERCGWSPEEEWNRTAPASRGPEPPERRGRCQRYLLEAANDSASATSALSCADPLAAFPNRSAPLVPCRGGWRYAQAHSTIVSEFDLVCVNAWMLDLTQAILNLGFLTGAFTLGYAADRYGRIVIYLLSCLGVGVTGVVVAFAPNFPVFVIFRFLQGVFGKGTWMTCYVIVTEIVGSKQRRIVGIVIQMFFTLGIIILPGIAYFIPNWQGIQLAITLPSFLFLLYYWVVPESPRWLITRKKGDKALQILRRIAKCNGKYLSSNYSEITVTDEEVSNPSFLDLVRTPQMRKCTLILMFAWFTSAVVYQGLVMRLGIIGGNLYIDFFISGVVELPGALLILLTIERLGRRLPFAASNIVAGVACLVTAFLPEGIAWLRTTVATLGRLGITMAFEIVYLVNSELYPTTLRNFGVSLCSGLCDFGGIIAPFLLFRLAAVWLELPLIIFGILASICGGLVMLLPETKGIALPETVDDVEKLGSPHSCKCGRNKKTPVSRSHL
Description: Uptake inhibition assay, OCT3. Format: cell-based. Conditions: HEK293 cells expressing human OCT3, 0.05 µM [3H]MPP+. On the procedure:
(§1) Cells were cultured in Dulbecco’s modified Eagle’s medium (DMEM) supplemented with 10% fetal bovine serum and 250 μg/mL geneticin to maintain selection pressure.
(§2) HEK293 cells heterologously expressing the respective transporters were seeded onto poly-D-lysine (PDL)-coated 96-well plates at a density of ∼36,000 cells per well, 1 day before experiments. For the experiment, medium was replaced with 200 µL Krebs HEPES buffer (KHB; 120 mM NaCl, 3 mM KCl, 2 mM CaCl2·2H2O, 2 mM MgCl2·6H2O, 20 mM D-glucose, pH 7.3). Test compounds were dissolved in Milli-Q water or dimethyl sulfoxide (DMSO) at 10–100 mM stock concentrations. Cells were preincubated for 5 min with the compound of interest (diluted in KHB to the indicated concentrations). The preincubation solution was then replaced with 50 µL/well of diluted compound together with tritiated substrate (DAT, OCT1, OCT2, OCT3: 0.05 μM [^3H]MPP^+; NET: 0.02 μM [^3H]MPP^+; SERT: 0.1 μM [^3H]5-HT) for 1 min (SERT) or 3 min (DAT, NET, OCT1– OCT3). After the incubation, uptake was terminated by rapidly washing cell with 200 μL KHB, followed by addition of 200 μL Ultima Gold™ XR scintillation cocktail (PerkinElmer, MA, United States) to each well. […] Uptake in the absence of inhibitor was defined as 100%, while uptake in presence of a reference inhibitor (hDAT, hNET: 50 μM GBR12909; hSERT: 3 μM paroxetine; OCT1–OCT3: 100 µM D22) was defined as nonspecific uptake (0%) and subtracted from all values.
(§3) Uptake is expressed as a percentage of control (uptake in the absence of test compound). Data represent mean ± SD of ≥3 independent experiments.

A further assay has as its target T3, human DAT (Homo sapiens, UniProt Q01959).
T3 construct: expressed in transfected cells
Description: Uptake inhibition assay, DAT. As to conditions: HEK293 cells expressing human DAT, 0.05 µM [3H]MPP+; for IC50: given as a range. Format: cell-based.

Assay [2] has as its target T4, human OCT1 (Homo sapiens, UniProt O15245).
T4 sequence (O15245 1-554): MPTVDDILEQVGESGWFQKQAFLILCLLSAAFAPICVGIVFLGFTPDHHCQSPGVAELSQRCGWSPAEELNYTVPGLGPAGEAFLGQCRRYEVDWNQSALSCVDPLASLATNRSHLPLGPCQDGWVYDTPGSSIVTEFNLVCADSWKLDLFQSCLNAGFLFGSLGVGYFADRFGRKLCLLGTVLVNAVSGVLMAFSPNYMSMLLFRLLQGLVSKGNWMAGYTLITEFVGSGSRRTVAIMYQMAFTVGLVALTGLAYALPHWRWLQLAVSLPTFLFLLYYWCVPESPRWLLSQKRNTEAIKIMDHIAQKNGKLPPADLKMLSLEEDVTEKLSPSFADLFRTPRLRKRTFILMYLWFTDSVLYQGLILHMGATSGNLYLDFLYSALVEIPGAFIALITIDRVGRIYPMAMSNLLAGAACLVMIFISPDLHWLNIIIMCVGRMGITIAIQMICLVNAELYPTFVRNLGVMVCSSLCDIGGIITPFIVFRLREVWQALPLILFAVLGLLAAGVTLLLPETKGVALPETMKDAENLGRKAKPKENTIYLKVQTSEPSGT
The assay is described as follows: cell-based. On the procedure: as §1, §2, §3

Assay [3] concerns the target T5, human OCT2 (Homo sapiens, UniProt O15244).
T5 sequence (O15244 1-555): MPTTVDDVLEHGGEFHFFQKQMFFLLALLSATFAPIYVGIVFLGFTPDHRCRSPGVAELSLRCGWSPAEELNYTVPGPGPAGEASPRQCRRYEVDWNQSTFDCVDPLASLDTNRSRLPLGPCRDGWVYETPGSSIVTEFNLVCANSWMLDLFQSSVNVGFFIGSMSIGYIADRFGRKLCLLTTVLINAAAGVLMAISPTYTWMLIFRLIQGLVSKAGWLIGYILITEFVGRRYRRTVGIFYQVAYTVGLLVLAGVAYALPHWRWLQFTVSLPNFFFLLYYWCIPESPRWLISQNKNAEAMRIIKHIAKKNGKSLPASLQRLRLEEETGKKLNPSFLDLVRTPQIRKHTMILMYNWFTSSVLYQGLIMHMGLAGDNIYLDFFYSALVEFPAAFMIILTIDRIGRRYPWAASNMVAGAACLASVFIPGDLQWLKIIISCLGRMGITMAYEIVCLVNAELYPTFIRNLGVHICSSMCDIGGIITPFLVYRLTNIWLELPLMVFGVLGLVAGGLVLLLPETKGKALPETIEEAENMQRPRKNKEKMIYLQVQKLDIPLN
Description: cell-based. On the procedure: as §1, §2, §3

Assay [4] addresses T2, human OCT3. Further details: method as in Angenoorth et al., 2021. Conditions: ref Angenoorth et al., 2021; cited from earlier work.
The target in assay [5] is T5, human OCT2. Further details: expressed in transfected cells; method as in Angenoorth et al., 2021. As to conditions: ref Angenoorth et al., 2021; cited from earlier work.
The target of assay [6] is T4, human OCT1. Further details: expressed in transfected cells; method as in Angenoorth et al., 2021. As to conditions: ref Angenoorth et al., 2021; cited from earlier work.
The mark [7] stands for this setting: HEK293 cells expressing human NET, 0.02 µM [3H]MPP+, given as a range, read-out: IC50 of NET uptake inhibition.
Where [8] appears, read: HEK293 cells expressing human NET, 0.02 µM [3H]MPP+.

T1 sequence (P23975 whole entry): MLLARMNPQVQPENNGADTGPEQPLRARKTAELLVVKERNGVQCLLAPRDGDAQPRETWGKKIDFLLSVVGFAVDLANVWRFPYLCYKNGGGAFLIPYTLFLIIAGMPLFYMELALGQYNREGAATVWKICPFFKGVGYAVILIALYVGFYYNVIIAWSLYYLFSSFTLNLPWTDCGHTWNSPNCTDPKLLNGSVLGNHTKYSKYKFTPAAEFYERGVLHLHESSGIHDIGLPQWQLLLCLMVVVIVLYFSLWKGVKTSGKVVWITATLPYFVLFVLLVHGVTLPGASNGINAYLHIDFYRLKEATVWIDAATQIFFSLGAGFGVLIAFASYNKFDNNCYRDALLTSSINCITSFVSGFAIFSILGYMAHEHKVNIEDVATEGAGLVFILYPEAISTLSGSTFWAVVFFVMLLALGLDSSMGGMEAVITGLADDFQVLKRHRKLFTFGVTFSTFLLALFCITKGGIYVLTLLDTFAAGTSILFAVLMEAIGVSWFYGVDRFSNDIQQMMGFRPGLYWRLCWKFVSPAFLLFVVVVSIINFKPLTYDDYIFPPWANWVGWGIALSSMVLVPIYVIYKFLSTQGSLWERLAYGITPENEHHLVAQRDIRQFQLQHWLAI
T3 sequence (Q01959 whole entry): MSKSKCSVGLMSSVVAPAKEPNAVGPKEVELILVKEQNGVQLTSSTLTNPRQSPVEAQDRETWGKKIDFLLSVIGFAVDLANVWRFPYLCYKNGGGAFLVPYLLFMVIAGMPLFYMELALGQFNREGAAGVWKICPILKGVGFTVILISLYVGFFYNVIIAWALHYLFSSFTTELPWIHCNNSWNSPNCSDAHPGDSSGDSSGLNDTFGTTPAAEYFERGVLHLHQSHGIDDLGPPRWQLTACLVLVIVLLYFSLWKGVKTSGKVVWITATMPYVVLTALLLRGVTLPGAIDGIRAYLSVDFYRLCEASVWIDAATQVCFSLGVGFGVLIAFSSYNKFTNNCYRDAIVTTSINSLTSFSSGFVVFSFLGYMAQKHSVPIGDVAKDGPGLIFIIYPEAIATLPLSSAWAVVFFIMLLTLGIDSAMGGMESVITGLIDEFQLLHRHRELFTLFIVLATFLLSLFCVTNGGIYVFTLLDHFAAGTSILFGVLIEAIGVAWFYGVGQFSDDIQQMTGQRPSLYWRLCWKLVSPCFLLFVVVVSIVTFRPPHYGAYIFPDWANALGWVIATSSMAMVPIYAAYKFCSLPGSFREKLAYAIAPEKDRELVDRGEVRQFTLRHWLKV

As a reminder, the IC50 is the concentration needed to halve the response being measured. For the molecule `CCOC(=O)c1ccc(N)cc1` [benzocaine, Ethyl 4-Aminobenzoate], the IC50 was in the range of 215 to 444 µM on human NET (setting [7]) and 17 to 27 µM against human DAT. Also, the “Inhibition of OCT3-mediated transport (in words)” value at human OCT3 [1] is “failed to inhibit”. The “Inhibition of [3H]MPP+ transport via OCT1 (in words)” value on human OCT1 [2] (HEK293 cells expressing human OCT1, 0.05 µM [3H]MPP+) is listed as “failed to inhibit”. In addition, on human OCT2 [3] (HEK293 cells expressing human OCT2, 0.05 µM [3H]MPP+), the “Inhibition of [3H]MPP+ transport via OCT2 (in words)” value is given as “failed to inhibit”.
As to `COC(=O)[C@H]1[C@@H](OC(=O)c2ccccc2)C[C@@H]2CC[C@H]1N2C` [cocaine], the “Inhibition of OCT3 (in words), previously reported” value at human OCT3 [4] is recorded as “but not OCT3”. Moreover, the “Inhibition of OCT3-mediated transport (in words)” value at human OCT3 [1] is recorded as “none of the compounds—cocaine, procaine, or lidocaine—substantially inhibited OCT3-mediated transport except at near-millimolar concentrations”. In addition, the “Inhibition of OCT2 (in words), previously reported” value on human OCT2 [5] was “inhibits OCT1 and OCT2”. Also, the IC50 against human OCT1 [2] lay in the range of 19 to 57 µM; at human OCT2 [3], 15 to 42 µM. Also, the “Inhibition of OCT1 (in words), previously reported” value on human OCT1 [6] was “inhibits OCT1 and OCT2”.
On to `c1ccc([C@H]2CN3CCSC3=N2)cc1` [levamisole], for which the IC50 was in the range of 60 to 106 µM against human NET and 81 to 316 µM at human DAT.
Consider `CCN(CC)CC(=O)Nc1c(C)cccc1C` [lidocaine], for which, on human NET (setting [8]), the “Inhibitory activity at NET (in words)” value is recorded as “no inhibitory potency”. For the same molecule, the “Inhibitory activity at DAT (in words)” value on human DAT is recorded as “no inhibitory potency”.
With `CC(=O)Nc1ccc(O)cc1` [paracetamol], at human NET (setting [8]), the “Inhibitory activity at NET (in words)” value was “no measurable inhibitory activity”. Moreover, on human DAT, the “Inhibitory activity at DAT (in words)” value is listed as “no measurable inhibitory activity”.
In the case of `CCOc1ccc(NC(C)=O)cc1` [phenacetin], the “Inhibitory activity at NET (in words)” value at human NET (setting [8]) is on record as “no measurable inhibitory activity”. The “Inhibitory activity at DAT (in words)” value at human DAT is reported as “no measurable inhibitory activity”.
For `CCN(CC)CCOC(=O)c1ccc(N)cc1` [procaine], the half-maximal inhibitory concentration (IC50) fell in the range of 88 to 146 µM on human NET (setting [7]), 15 to 29 µM on human DAT, 5 to 9 µM at human OCT1 [2] and 10 to 24 µM against human OCT2 [3]. For the same molecule, at human OCT3 [1], the “Inhibition of OCT3-mediated transport (in words)” value is on record as “none of the compounds—cocaine, procaine, or lidocaine—substantially inhibited OCT3-mediated transport except at near-millimolar concentrations”.
